No end group written: not given here.

Assay [1] has as its target T1, human plasma factor XIIIa (Homo sapiens, UniProt P00488).
T1 construct: from tissue; host or cells: human plasma (defibrinogenated, not purified further)
T1 sequence (P00488 39-732 limits assumed): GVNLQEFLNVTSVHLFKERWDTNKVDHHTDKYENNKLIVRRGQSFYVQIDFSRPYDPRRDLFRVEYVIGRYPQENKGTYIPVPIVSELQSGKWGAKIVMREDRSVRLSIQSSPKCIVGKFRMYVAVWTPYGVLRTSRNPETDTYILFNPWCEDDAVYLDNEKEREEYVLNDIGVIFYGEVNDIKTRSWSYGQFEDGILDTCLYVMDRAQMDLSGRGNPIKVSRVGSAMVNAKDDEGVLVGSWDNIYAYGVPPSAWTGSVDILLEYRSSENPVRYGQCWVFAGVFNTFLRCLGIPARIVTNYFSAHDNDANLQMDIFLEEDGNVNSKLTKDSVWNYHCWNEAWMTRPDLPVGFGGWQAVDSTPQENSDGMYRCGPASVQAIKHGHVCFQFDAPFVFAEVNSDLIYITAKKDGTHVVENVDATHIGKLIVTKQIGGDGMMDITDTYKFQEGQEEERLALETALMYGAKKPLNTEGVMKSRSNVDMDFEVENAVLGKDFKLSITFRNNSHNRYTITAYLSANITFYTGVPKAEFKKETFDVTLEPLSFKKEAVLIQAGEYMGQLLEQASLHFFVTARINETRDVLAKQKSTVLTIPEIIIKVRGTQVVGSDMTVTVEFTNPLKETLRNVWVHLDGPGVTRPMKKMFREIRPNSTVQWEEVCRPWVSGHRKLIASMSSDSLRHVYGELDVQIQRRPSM
As to the kind of experiment: production of ammonia from casein on ethylamine incorporation (glutamate dehydrogenase/NADH coupled). It is filed as biochemical. To be noted: control 4.14. The protocol:
The transglutaminase activity of human plasma factor XIIIa was measured spectrophotometrically by a modification of the method of Muszbek, Polgar and Fesus; "Kinetic determination of blood coagulation factor XIII in plasma." Clin Chem 31 (1985) pp. 35-40. This method measures the production of ammonia by linking it through the glutamate dehydrogenase reaction to NADH oxidation which can be monitored by the change in absorption at 340 nm. Factor XIII was activated by incubating defibrinated human plasma (2 ml) and 200 mM CaCl2 (0.1 ml) with 1000 unit/ml bovine thrombin (0.1 ml) at 37° C. After 15 min the reaction was stopped by the addition of 260 antithrombin units of hirudin. The reaction cuvette contained: 2.5 mM dithiothreitol (0.1 ml), 40 mg/ml dephosphorylated β-casein (0.05 ml), 70 mM ethylamine (0.1 ml), 12 mM sodium 2-ketoglutarate (0.1 ml), 4 mM NADH (0.1 ml), 1.2 mM ADP (0.1 ml), 40 unit/ml glutamate dehydrogenase (0.1 ml), 70 mM HEPES buffer pH7.5 (0.25 ml) and this was placed in a spectrophotometer at 20° C. All components were dissolved in 70 mM HEPES buffer pH 7.5 where possible. The reaction was started by the addition of the activated factor XIII (0.2 ml) and monitored at 340 nm. The assay was validated with the use of factor XIII-deficient plasma (Sigma).
Test samples were added in 0.1 ml of the HEPES buffer to the reaction cuvette. […]

The test system of another assay is factor XIIIa. As to the kind of experiment: clot solubility assay (fibrin clot in urea). It counts as biochemical, bovine. Conditions: iodoacetamide 100 μM, lowered absorbance = clot soluble in urea. The protocol:
In a first experiment A, the proboscis, anterior and posterior salivary glands of a leech of the species Haementeria ghilianii were homogenised together in a Potter homogeniser in 10 mM Tris HCl, 0.85% w/v NaCl pH7.0 (1 ml), and centrifuged at 13000 rpm. The supernatant was assayed in a clot solubility assay similar to that of Tymiak, Tuttle, Kimball, Wang and Lee "A simple and rapid screen for inhibitors of factor XIIIa". J. Antibiotics 46 (1993) pp. 204-206. In a second experiment B, the proboscis, anterior and posterior salivary glands were dissected from a leech of the species Haementeria ghilianii and homogenised separately in 0.2 ml aliquots of the buffer. The effect was compared with extracts of the proboscis, anterior and posterior salivary glands from two leeches of the species Haementeria officinalis prepared in 0.2 ml buffer. The test samples (30 μl) were added to a solution of 10 mg/ml crude bovine fibrinogen which contains factor XIII (30 μl). The reaction was started by adding 6.25 units/ml bovine thrombin containing 9 mM CaCl2 (40 μl). A clot formed in 15 min when 8M urea (160 μl) was added and left in contact with the clot. After 30 min, the absorbance resulting from the clot's opalescence was read at 405 nm. Lowered absorbance indicates solubility of the clot resulting from inhibition of cross-linking. […] The numerical values quoted in the table are absorbance at 405 nm.

Another assay has as its system thrombin. As to the kind of experiment: thrombin chromogenic substrate assay (S2238). It is filed as biochemical. Conditions: 0.046 μg/ml. On the procedure:
(§1) The effect of Tridegin variant 1 purified as in Example 6 was tested on the coagulation enzyme, thrombin. with a chromogenic substrate assay. 1 mM S2238 was incubated in 50 mM Tris HCl pH 8.3 and the reaction was started by adding thrombin 0.15 U/ml final concentration. The reaction was monitored in a spectrophotometer at 405 nm.

The target in a further assay is human factor Xa (Homo sapiens, UniProt P00742). As to the kind of experiment: factor Xa chromogenic substrate assay (S2765). It is filed as biochemical. To be noted: 0.046 μg/ml. On the procedure: as §1
The effect of the Tridegin purified as in Example 6 was tested on factor Xa. 2 mM S2765 was incubated in 50 mM Tris HCl pH 8.3 and the reaction was started by adding human factor Xa. The assay was performed as in Example 11. […] This confirms that, not only is the transglutaminase inhibitor different from previously known inhibitors of factor Xa, but the methods exemplified to purify the transglutaminase inhibitor successfully remove the factor Xa inhibitors.

Sequence of human factor Xa (P00742 41-179 limits assumed): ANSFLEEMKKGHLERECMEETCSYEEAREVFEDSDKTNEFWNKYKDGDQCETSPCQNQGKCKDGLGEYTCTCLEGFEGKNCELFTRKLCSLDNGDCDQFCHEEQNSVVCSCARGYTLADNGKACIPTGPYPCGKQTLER
Sequence of human factor Xa (P00742 235-488 limits assumed): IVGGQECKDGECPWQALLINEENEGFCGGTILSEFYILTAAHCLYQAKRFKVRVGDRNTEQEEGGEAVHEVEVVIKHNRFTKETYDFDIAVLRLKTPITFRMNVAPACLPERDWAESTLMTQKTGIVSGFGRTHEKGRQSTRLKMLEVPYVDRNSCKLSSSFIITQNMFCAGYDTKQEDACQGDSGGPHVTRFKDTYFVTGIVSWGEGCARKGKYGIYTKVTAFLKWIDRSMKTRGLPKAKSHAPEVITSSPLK

`O=C(O)CN(CCOCCOCCN(CC(=O)O)CC(=O)O)CC(=O)O` [EGTA] had a Change in absorbance in assay [1] (77 mM in cuvette) of 0.024 mAbs/min.

For the compound `NC(=O)CI` [Iodoacetamide], the Change in absorbance in assay [1] (0.077 mM in cuvette) turned out to be 0.356 mAbs/min. Moreover, the “absorbance at 405 nm, Experiment A” value in the assay with factor XIIIa (Tris buffer 0.74) worked out at 0.26. Besides, the “absorbance at 405 nm, Experiment B” value with factor XIIIa (Tris buffer 0.83) is given as 0.42.

In the case of Hirudin, the “inhibitory effect on thrombin” value with thrombin worked out at 95%. The “Rate of Reaction” value with thrombin (control 49.8) was 2.63 mAbs/min.

As for “rTAP: recombinant tick anticoagulant peptide, a known inhibitor of factor Xa (YNRLCIKPRDWIDECDSNEGGERAYFRNGKGGCDSFWICPEDHTGADYYSSYRDCFNACI; ends and bridges not checked; cysteine pairing not given here; UniProt P17726 1-60, looked up)”, the “inhibition of factor Xa” value in the assay with human factor Xa is reported as 89.9%. Also, the “Reaction Rate” value with human factor Xa (control 49.8) amounted to 5.53 mAbs/min.

The values are drawn from US6025330A, “Inhibitors of fibrin cross-linking and/or transglutaminases” (BioPharm Research & Development Ltd., priority 1995, dated 2000).
